# Source: PubChem BioAssay (NCI)
#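 Five concentrations, 48 hours, 96-well plates. The concentration for 50% growth inhibition is given as GI50. TGI: total growth inhibition.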
# What was measured:
# Experiment in all cases: inhibition of tumour cell growth, NCI panel, 48 h
# HOP-92 NSCLC = test system: HOP-92 NSCLC
# NCI/ADR-RES ovarian = test system: NCI/ADR-RES ovarian
# M14 melanoma = test system: M14 melanoma
# UACC-62 melanoma = test system: UACC-62 melanoma
# KM12 colon = test system: KM12 colon
# DU-145 prostate = test system: DU-145 prostate
# OVCAR-4 ovarian = test system: OVCAR-4 ovarian
# COLO 205 colon = test system: COLO 205 colon
# RPMI-8226 leukemia = test system: RPMI-8226 leukemia
# 786-0 renal = test system: 786-0 renal
# HCT-15 colon = test system: HCT-15 colon
# MCF7 breast = test system: MCF7 breast
# MDA-MB-231 breast = test system: MDA-MB-231 breast
# UO-31 renal = test system: UO-31 renal
# HCT-116 colon = test system: HCT-116 colon
# TK-10 renal = test system: TK-10 renal
# PC-3 prostate = test system: PC-3 prostate
# K-562 leukemia = test system: K-562 leukemia
# UACC-257 melanoma = test system: UACC-257 melanoma
# MOLT-4 leukemia = test system: MOLT-4 leukemia
# BT-549 breast = test system: BT-549 breast
# SF-268 CNS = test system: SF-268 CNS
# OVCAR-8 ovarian = test system: OVCAR-8 ovarian
# SF-539 CNS = test system: SF-539 CNS
# SN12C renal = test system: SN12C renal
# MDA-MB-435 = test system: MDA-MB-435
# CCRF-CEM leukemia = test system: CCRF-CEM leukemia
# IGROV1 ovarian = test system: IGROV1 ovarian
# CAKI-1 renal = test system: CAKI-1 renal
structure (smiles),measurement,setting,value
CCn1ccnc1C(=O)/C=C/c1ccc(CC(=O)Nc2ccc(F)cc2)cc1,GI50,HOP-92 NSCLC,3.32 µM
same,TGI,HOP-92 NSCLC,8.83 µM
same,GI50,NCI/ADR-RES ovarian,5.37 µM
same,TGI,NCI/ADR-RES ovarian,> 16.7 µM
same,GI50,M14 melanoma,3.02 µM
same,TGI,M14 melanoma,8.06 µM
same,GI50,UACC-62 melanoma,2.83 µM
same,TGI,UACC-62 melanoma,6.57 µM
same,GI50,KM12 colon,3.06 µM
same,TGI,KM12 colon,8.33 µM
same,GI50,DU-145 prostate,4.45 µM
same,TGI,DU-145 prostate,> 16.7 µM
same,GI50,OVCAR-4 ovarian,3.31 µM
same,TGI,OVCAR-4 ovarian,> 16.7 µM
same,GI50,COLO 205 colon,4.29 µM
same,TGI,COLO 205 colon,13.1 µM
same,GI50,RPMI-8226 leukemia,2.28 µM
same,TGI,RPMI-8226 leukemia,8.09 µM
same,GI50,786-0 renal,4.36 µM
same,TGI,786-0 renal,> 16.7 µM
same,GI50,HCT-15 colon,1.93 µM
same,TGI,HCT-15 colon,8.96 µM
same,GI50,MCF7 breast,2.52 µM
same,TGI,MCF7 breast,> 16.7 µM
same,GI50,MDA-MB-231 breast,4.36 µM
same,TGI,MDA-MB-231 breast,> 16.7 µM
same,GI50,UO-31 renal,2.65 µM
same,TGI,UO-31 renal,10.5 µM
same,GI50,HCT-116 colon,1.84 µM
same,TGI,HCT-116 colon,4.4 µM
same,GI50,TK-10 renal,6.01 µM
same,TGI,TK-10 renal,> 16.7 µM
same,GI50,PC-3 prostate,7.06 µM
same,TGI,PC-3 prostate,> 16.7 µM
same,GI50,K-562 leukemia,2.06 µM
same,TGI,K-562 leukemia,> 16.7 µM
same,GI50,UACC-257 melanoma,14 µM
same,TGI,UACC-257 melanoma,> 16.7 µM
same,GI50,MOLT-4 leukemia,5.28 µM
same,TGI,MOLT-4 leukemia,14.5 µM
same,GI50,BT-549 breast,2.94 µM
same,TGI,BT-549 breast,7.03 µM
same,GI50,SF-268 CNS,3.81 µM
same,TGI,SF-268 CNS,> 16.7 µM
same,GI50,OVCAR-8 ovarian,4.86 µM
same,TGI,OVCAR-8 ovarian,> 16.7 µM
same,GI50,SF-539 CNS,2.93 µM
same,TGI,SF-539 CNS,6.15 µM
same,GI50,SN12C renal,3.71 µM
same,TGI,SN12C renal,> 16.7 µM
same,GI50,MDA-MB-435,4.58 µM
same,TGI,MDA-MB-435,> 16.7 µM
same,GI50,CCRF-CEM leukemia,4.35 µM
same,TGI,CCRF-CEM leukemia,16.3 µM
same,GI50,IGROV1 ovarian,4.63 µM
same,TGI,IGROV1 ovarian,> 16.7 µM
same,GI50,CAKI-1 renal,5.08 µM
same,TGI,CAKI-1 renal,> 16.7 µM
